Experimental data: US10357477B2, “Anticancer compounds” (REGENTS OF THE UNIVERSITY OF MINNESOTA, priority 2016, dated 2019)
Converted amounts (≈) assume the structure as drawn.

Assays:
[1] = Plasma stability assay, mouse plasma; assay type: in vitro ADME; settings: 37° C.
Method: The plasma stability assay was performed in triplicate by incubating a compound in normal mouse and human plasma at 37° C. At 0, 1, 3, 6, and 24 h, aliquots of the plasma mixture were taken and quenched with 3 volumes of acetonitrile containing an appropriate internal standard. The samples were then vortexed and centrifuged at 14,000 rpm for 5 min. The supernatants were collected and analyzed by LC-MS/MS to determine the remaining percentage at various time points.
Quantification and analysis of compounds in biological samples were carried out on an AB Sciex QTrap 5500 mass spectrometer coupled with an Agilent 1260 Infinity HPLC. The chromatographic separation of compounds was achieved using a Phenomenex Kinetex C18 column (50×2.1 mm, 2.6 μm), and MS/MS analysis was conducted using an ESI ion source with MRM detection. The MS/MS detection parameters including declustering potential (DP), entrance potential (EP), collision energy (CE), and collision cell exit potential (CXP) were optimized for each compound.

MIA PaCa-2 cells = experiment: Cell viability assay (MTT) in MIA PaCa-2 cells; assay type: cell-based; settings: Homo sapiens, antiproliferative activity, 72 h
In short: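 MIA PaCa-2 cells exposed 72 h at 37° C to 2-fold serial compound dilutions from 100 μM final, 0.5% DMSO, in triplicate. Viability by MTT (3 h), formazan read at 570 nm minus 650 nm; EC50 from curve fit.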

[2] = Thermodynamic solubility assay; assay type: physicochemical; settings: aqueous buffer, thermodynamic from solid, DPBS pH=7.4, 48 h, ambient temperature
Method: Briefly, a saturated solution was made by adding DPBS to the solid compound. The mixture was shaken at 200 rpm for 48 h in a MaxQ 6000 orbital shaker at ambient temperature to allow equilibrium between the solid and dissolved compound. The suspension was then filtered through a 0.45 μm PVDF syringe filter and the filtrate was collected for analysis using UV spectrometry (SpectraMax M5e, Molecular Devices) at λ=240 nm.

SMILES: CNC(=O)c1cccc(Cn2nc(C)c(NC(=O)c3ccc(COc4ccc(C(F)(F)F)cc4)cc3)c2C)c1 [Compound D9c, 3-((3,5-Dimethyl-4-(4-((4-(trifluoromethyl)phenoxy)-methyl)benzamido)-1H-pyrazol-1-yl)methyl)-N-methylbenzamide]
- Plasma Stability (% remaining, 6 h/24 h) Mouse ([1]; 6 h): 91%
- Plasma Stability (% remaining, 6 h/24 h) Mouse ([1]; 24 h): 77%
- EC50 (MIA PaCa-2 cells): 800 nM
- solubility at 48 h [2]: 67.3 ± 5.2 µM (≈ 36.1 µg/mL)
